# Laboratory results taken from patent US20230364118A1, “RIBITOL TREATMENT” (priority 2020, published 2023).
# How the values were obtained:
# [1] = Plasma protein binding, animals pooled (range); type: in vitro ADME, CD-1 mouse; conditions: CD-1, Sprague-Dawley, Gottingen, mouse, rat, minipig, animal plasma, 0.49 and 1.31 mM
# Description: Protein binding studies with ribitol were performed in vitro using plasma from CD-1 mouse, Sprague-Dawley rat, Gottingen minipig, and human at 75 μg/mL (0.49 mM) and 200 μg/mL (1.31 mM) using the rapid equilibrium dialysis method. The percent of ribitol bound to plasma was approximately similar between the two concentrations tested in all species.
# L276I FKRP mutant mice = assay: Efficacy in L276I FKRP mutant mouse model; type: in vivo
# Description: The more common LGMD2i FKRP L276I mutation was studied in a murine model of disease. […] Total running time was increased in these dosing groups (FIG. 7C).
# The effect of ribitol on an additional model of LGMD2i was evaluated in mice with the L276I FKRP mutation. L276I mutant mice were treated with ribitol at single daily doses of 0.5 g/kg, 2 g/kg, 5 g/kg, and 5 g/kg BID by oral gavage from the age of 8 weeks when the mild dystrophic phenotype is detectable. The duration of treatment was one year. Ribitol was dissolved in saline and administered by oral gavage. The same methods described above were applied to evaluate expression of matriglycan and muscle pathology.
# [2] = Chronic (6 months) administration in mice; type: in vivo, mouse
# Description: This response subsided at 48 hours after termination of treatment. No other adverse findings have been identified thus far with ribitol.
# [3] = PK comparison QD, BID, TID oral dosing; type: in vivo; conditions: CD-1, mouse, plasma; for AUC(0-inf) / Cmax / half-life: po, 0.3 g/kg
# Description: Each regimen was studied in 3 male and 3 female CD-1 mice. PK of ribitol following the final dose was compared among these three regimens. The first and the second subsets of mice receiving QD and BID of ribitol were bled at 0.5, 1, 2, 4, and 6 hours post QD dosing and the second dose of the BID dosing, respectively; the third subset of mice receiving TID of ribitol were bled at 0.5, 1, 2, 4 and 12 hours post the third dose.
# [4] = 28-day oral GLP toxicity study with 14-day recovery; conditions: mouse
# Description: The purpose of this GLP study was to assess the potential toxicity, reversibility, persistence, or delayed effects of ribitol in mice following 28 days of BID oral gavage dosing. In addition, 20 mice/sex/group were treated for 28 days with either vehicle (purified water), 0.5, 1.0, or 1.5 g/kg/dose ribitol BID (1.0, 2.0, or 3.0 g/kg/day) followed by 14-day treatment free recovery period. In-life assessments included mortality, clinical signs including detailed clinical observations pre-test and once weekly during the dosing and recovery phase, body weight, food consumption, ophthalmology, and clinical pathology (hematology and serum chemistry). Terminal endpoints included macroscopic pathology, organ weights and histopathology. Blood was taken from a satellite group of mice for plasma TK (3/sex/timepoint) on Days 1 and 28.
# in vivo = conditions: minipig, po
# Description: The purpose of this study was to determine the MTD following two oral doses 6±0.5 hours apart (Phase 1) and to characterize the toxicity and TK profile following 7 days BID dosing with ribitol with 6±0.5 hours between doses in minipigs.
# Minipigs were assessed for viability, clinical signs, body weight, food consumption, clinical pathology (hematology, coagulation, and serum chemistry), organ weights (adrenal glands, brain, heart, kidneys, liver with gall bladder, ovary, spleen, testes, and thymus), and macroscopic pathology at necropsy. Blood was taken for plasma TK analysis on Days 1 and 7.
# In Phase 1, Bama minipigs (2/sex/group) were ribitol at 0.3, 1.0, 1.5, or 2.0 g/kg/dose BID (0.6, 2.0, 3.0, or 4.0 g/kg/day) with 5.5 to 6.5 hours between doses. […] Minipigs were assessed for viability, clinical signs, body weight, food consumption, and macroscopic findings at necropsy.
# Doses were selected for Phase 2 based on the Phase 1 study results and in compliance with the guidance criteria for high dose selection for general toxicity studies (ICH M3 [R2]). In this phase, minipigs (2/sex/group) were given oral doses of 0 (vehicle control, water), 0.1, 0.3, or 1.0 g/kg/dose ribitol BID with 5.5 to 6.5 hours between doses (0.2, 0.6, or 2.0 g/kg/day, respectively).
# [5] = female, PO 0.3 g/kg/dose BID, last dose
# [6] = female, PO 0.3 g/kg/dose TID, last dose
# [7] = male, PO 0.3 g/kg/dose BID, last dose
# [8] = male, PO 0.3 g/kg/dose TID, last dose
compound,measurement,setting,value
"OC[C@@H](O)[C@@H](O)[C@@H](O)CO [ribitol, (2R,3s,4S)-Pentane-1,2,3,4,5-pentol]",fraction unbound,[1],0.554 to 0.614
same,creatine kinase,L276I FKRP mutant mice; 1 year oral dosing,reduced with increasing doses
same,expression of matriglycan on αDG (immunohistochemistry),L276I FKRP mutant mice; 1 year oral dosing,increases in a dose dependent manner
same,increase in treadmill running distance,L276I FKRP mutant mice; 2 g/kg/day,14%
same,matriglycan expression (immunohistochemistry),L276I FKRP mutant mice; all treatment groups,increased matriglycan expression
same,treadmill running distance,"L276I FKRP mutant mice; six months, 2, 5 g/kg, 5 g/kg/dose BID, 3.3 g/kg/dose TID",trend toward improved running distance
same,total running time,"L276I FKRP mutant mice; six months, same dosing groups",increased
same,adverse findings,"[2]; 6 months, ≥2 g/kg/day",intestinal bloating and soft stool were observed
same,time for response to subside after termination of treatment,[2]; intestinal bloating and soft stool,48 h
same,Tmax,"[3]; PO 0.3 g/kg QD, female",30 min
same,Tmax,"[3]; PO 0.3 g/kg QD, male",30 min
same,AUC(0-inf),"[3]; female, PO 0.3 g/kg QD",47100 ng·h/mL
same,Cmax,"[3]; female, PO 0.3 g/kg QD",33300 ng/mL
same,half-life,"[3]; female, PO 0.3 g/kg QD",70.2 min
same,AUC(0-inf),[3]; [5],48300 ng·h/mL
same,Cmax,[3]; [5],28300 ng/mL
same,half-life,[3]; [5],59 min
same,AUC(0-inf),[3]; [6],40600 ng·h/mL
same,Cmax,[3]; [6],43900 ng/mL
same,half-life,[3]; [6],31.8 min
same,AUC(0-inf),"[3]; male, PO 0.3 g/kg QD",45200 ng·h/mL
same,Cmax,"[3]; male, PO 0.3 g/kg QD",34200 ng/mL
same,half-life,"[3]; male, PO 0.3 g/kg QD",50.3 min
same,AUC(0-inf),[3]; [7],49600 ng·h/mL
same,Cmax,[3]; [7],27400 ng/mL
same,half-life,[3]; [7],90 min
same,AUC(0-inf),[3]; [8],28200 ng·h/mL
same,Cmax,[3]; [8],31400 ng/mL
same,half-life,[3]; [8],27.2 min
same,NOAEL,[4]; 28 days oral,1.5 g/kg/dose BID
same,time to resolution of soft or abnormal stools,[4]; in vivo,2 to 8 days
same,MTD at 14 days,"in vivo; both, Bama",≥ 4000 mg/kg/day
same,MTD,in vivo,≥ 2.0 g/kg/dose BID
